Measured values reported in PubChem BioAssay (NCI).
Several values for one entry are separate records, joined by “and”; a condition that tells them apart may be missing. Equal entries are not always repeated.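 Cultured in 96-well plates, cells were exposed to test compound for 48 hours across five concentrations. GI50 is the concentration that inhibits growth by half. TGI marks complete inhibition of growth.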

Legend:
Experiment in all cases: DTP human tumour cell line panel, 48 h
[1] = test system: DMS 114 small cell lung
[2] = test system: HOP-92 NSCLC
[3] = test system: NCI-H23 lung
[4] = test system: OVCAR-3 ovarian
[5] = test system: OVCAR-4 ovarian
[6] = test system: SW-620 colon
[7] = test system: TK-10 renal
[8] = test system: DMS 273 small cell lung
[9] = test system: HL-60(TB) leukemia
[10] = test system: SR leukemia

SMILES	TGI [1] [µM]	TGI [2]	TGI [3]	TGI [4]	TGI [5]	TGI [6]	TGI [7]	TGI [8] [µM]	TGI [9]	TGI [10]	GI50 [9] [µM]	GI50 [2]	GI50 [3]	GI50 [4]	GI50 [5]	GI50 [10]	GI50 [6]	GI50 [7]
C=CCC1OC(C)(C)Oc2ccc(OCOCCOC)cc21 (stereo not given)	> 100	> 100 µM	> 100 µM	> 100 µM	> 100 µM	> 100 µM	> 100 µM	–	–	–	–	–	–	–	–	–	–	–
N=C(c1ccccc1)N(c1ccccc1)c1ccccc1	–	–	> 100 µM	–	> 100 µM	> 100 µM	> 100 µM	> 100	> 100 µM	> 100 µM	–	–	–	–	–	–	–	–
COc1cc2c(cc1O)C=NCC2	> 100	> 100 µM	> 100 µM	> 100 µM	> 100 µM	> 100 µM	> 100 µM	> 100	> 100 µM	–	–	–	–	–	–	–	–	–
C=C1C(=O)O[C@H]2[C@H]1CC/C(CNC(=O)/C=C/c1ccc(Br)cc1)=C\CC[C@@]1(C)O[C@@H]21	–	2.26 µM	3.05 µM	1.74 µM	2.96 µM	1.77 µM	2.58 µM	–	7.28 µM	–	0.744	0.659 µM	1.41 µM	0.511 µM	1.37 µM	0.255 µM	0.444 µM	1.24 µM
C(=Nc1ccccc1)C1CCCC[N-]1.C(=Nc1ccccc1)C1CCCC[N-]1.[Cu+2].[O-][Cl+3]([O-])([O-])O (stereo not given)	–	> 73.9 µM	33.2 µM	20.4 µM	84.4 µM	32.4 µM	32.7 µM	–	31.5 µM	6.12 µM	6.26	23 µM	15.1 µM	13 µM	26 µM	1.64 µM	10.4 µM	9.8 µM
COc1ccc(-c2[nH]ncc2-c2cc3c(c(OC)c2)OCC(=O)N3)cc1	–	99.7 µM	> 77.7 µM	49 µM	77.9 µM	> 54 µM	> 100 µM	–	2.06 µM	> 47.7 µM	0.352	1.11 µM	1.46 µM	0.36 µM	2.91 µM	0.285 µM	0.356 µM	7.59 µM
O=C(O)CSCc1cccc2ccccc12	–	> 100 µM	> 100 µM	> 100 µM	> 100 µM	> 100 µM	> 100 µM	–	> 100 µM	> 100 µM	–	–	–	–	–	–	–	–
CNC(=O)c1cc(COc2nnc(Nc3ccc(Cl)cc3)c3ccoc23)ccn1	–	14.4 µM and > 10 µM	37.8 µM and > 10 µM	26.4 µM and > 10 µM	11.7 µM and > 10 µM	56.6 µM and > 10 µM	11.8 µM and > 10 µM	–	> 100 µM	83.1 µM and > 10 µM	> 100	2.9 µM and 3.78 µM	11.1 µM and > 10 µM	11.1 µM and > 10 µM	2.87 µM and 3.16 µM	20.1 µM and > 10 µM	21.1 µM and > 10 µM	3.59 µM and 8.84 µM
CCOc1ccc(NC(=O)CC2SC(=Nc3ccc(Cl)cc3)NC2=O)cc1 (stereo not given)	> 100	–	> 100 µM	> 100 µM	> 100 µM	> 100 µM	> 100 µM	> 100	75.4 µM	–	–	–	–	–	–	–	–	–
Cc1ccccc1NC(=S)Nc1ccccn1	–	> 100 µM	> 100 µM	> 100 µM	> 100 µM	> 100 µM	> 100 µM	–	> 100 µM	> 100 µM	> 100	10.6 µM	85.3 µM	> 100 µM	72.5 µM	> 100 µM	> 100 µM	> 100 µM
CCSc1nnc2c(-c3ccccc3)n[nH]c2n1	–	> 100 µM	> 100 µM	> 100 µM	> 100 µM	> 100 µM	> 100 µM	–	> 100 µM	> 100 µM	–	–	–	–	–	–	–	–
O=C(O)CN(c1ccccc1)S(=O)(=O)c1ccc(NC(=O)c2ccccc2)cc1	–	> 100 µM	> 100 µM	–	> 100 µM	> 100 µM	> 100 µM	> 100	> 100 µM	–	–	–	–	–	–	–	–	–
COc1cc2c(cc1OC)C13CCN4C=C5CCOC6CC(=O)N2C1C6C5CC43 (stereo not given)	–	> 100 µM	> 100 µM	> 100 µM	> 100 µM	> 100 µM	> 100 µM	–	> 100 µM	> 100 µM	–	–	–	–	–	–	–	–
COc1cccc2c1C(=O)c1c(O)c3c(c(O)c1C2=O)CC(O)(C(C)=O)CC3OC1CC(N)C(O)C(C)O1 (stereo not given)	–	0.413 µg/mL	0.692 µg/mL	0.958 µg/mL	0.692 µg/mL	0.47 µg/mL	18.6 µg/mL	–	0.0356 µg/mL	0.152 µg/mL	–	0.0155 µg/mL	0.0174 µg/mL	0.0426 µg/mL	0.0742 µg/mL	–	–	0.273 µg/mL
Cc1cc(C)nc(NC(N)=NCCc2ccccc2)n1	–	73.1 µM	> 100 µM	8.35 µM	> 100 µM	> 100 µM	> 100 µM	–	12.4 µM	14.5 µM	2.9	3.97 µM	7.02 µM	2.76 µM	5.35 µM	2.77 µM	3.51 µM	17.6 µM
COC(=O)[C@@H](NC(=O)NC(=O)NC(=O)CI)C(C)C	–	7.36 µM	33.8 µM	4.78 µM	13.7 µM	4.19 µM	20.5 µM	–	3.86 µM	5.64 µM	1.7	2.7 µM	16.1 µM	2.23 µM	3.19 µM	1.76 µM	2.04 µM	7.65 µM
CC1=NN(C(=O)c2ccccc2O)C(=O)/C1=C/c1ccc([N+](=O)[O-])cc1	7.81	> 100 µM	4.77 µM	7.05 µM and 1.32 µM	> 100 µM	> 100 µM	> 100 µM	–	–	–	1.08	0.609 µM	0.654 µM	1.98 µM	0.783 µM	5.04 µM	3.15 µM	4.83 µM
Cc1ccc(C(=O)N(CCCN)[C@@H](c2nc3cc(Cl)ccc3c(=O)n2Cc2ccccc2)C(C)C)cc1	–	2 µM and 2.33 µM	1.59 µM and 1.67 µM	–	3.54 µM and 2.46 µM	1.28 µM and 1.61 µM	1.71 µM and 2.81 µM	–	0.482 µM	1.63 µM and 1.44 µM	< 0.01	1 µM	< 0.01 µM	< 0.01 µM	1.28 µM and 1.13 µM	< 0.01 µM	< 0.01 µM	–
